From PubChem BioAssay (NCI) come the findings set out here.

“And” between values parts separate entries of the source, which are not always exact repeats. Equal values may be shown once.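 1) Cells in 96-well plates. 2) Compound, 48 h, 5 concentrations. 3) Linear interpolation between surrounding doses. 4) Unreached endpoint = highest concentration. Here, GI50 denotes the concentration required for 50% inhibition of growth. TGI marks complete inhibition of growth.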

Some test systems named below: ACHN renal; MCF7 breast; EKVX NSCLC; A498 renal; NCI-H460 lung; RPMI-8226 leukemia; SK-MEL-2 melanoma; UACC-257 melanoma; SK-MEL-28 melanoma; UACC-62 melanoma.
Holding throughout (test): DTP human tumour cell line panel, 48 h

For `COc1ccc(CNC(=O)c2ccc(-c3cc(-c4nnc(C)o4)ccc3C)cc2)cc1`, the GI50 (in general, the concentration giving 50% growth inhibition) in the experiment on ACHN renal was 16.3 µM; in the experiment on MCF7 breast, 9.86 µM; with EKVX NSCLC, 7.68 µM; in the experiment on A498 renal it was 8.22 µM; in the experiment on NCI-H460 lung it was > 25 µM; in the experiment on RPMI-8226 leukemia, 12.6 µM. The GI50 with SK-MEL-2 melanoma is > 25 µM; with UACC-257 melanoma, 12.8 µM; in the experiment on SK-MEL-28 melanoma it was > 25 µM; in the experiment with UACC-62 melanoma, 11.1 µM. Besides, the TGI with ACHN renal, in the experiment with MCF7 breast, in the experiment with EKVX NSCLC, in the experiment with A498 renal, in the experiment with NCI-H460 lung and in the experiment on RPMI-8226 leukemia was > 25 µM throughout. Further, the TGI with SK-MEL-2 melanoma, in the experiment on UACC-257 melanoma, with SK-MEL-28 melanoma and with UACC-62 melanoma was > 25 µM in each case.

Take `CCCC(=O)Nc1cn(COC)c(C(=O)N2C[C@H]3C[C@@]34C2=CC(=O)c2[nH]cc(C)c24)n1`: the TGI (usually the concentration at which net growth stops) was 50 µM and > 100 µM with ACHN renal; 50 µM and > 100 µM with MCF7 breast; 39 µM and > 100 µM in the experiment with EKVX NSCLC; 17.9 µM with A498 renal; 15.9 µM and 28.7 µM in the experiment with NCI-H460 lung; 22.8 µM and > 100 µM with RPMI-8226 leukemia. Besides, the TGI in the experiment with SK-MEL-2 melanoma was 50 µM and > 100 µM; in the experiment on UACC-257 melanoma it was 18.7 µM and 83.3 µM; in the experiment on SK-MEL-28 melanoma, 35.7 µM and > 100 µM; in the experiment on UACC-62 melanoma, 14.5 µM and 26.1 µM. For the same compound, the GI50 with MCF7 breast is 3.53 µM; in the experiment on EKVX NSCLC, 39.1 µM; in the experiment on RPMI-8226 leukemia it was 3.21 µM; in the experiment on SK-MEL-2 melanoma it was 7.39 µM; in the experiment with UACC-257 melanoma, 10.5 µM; in the experiment on SK-MEL-28 melanoma, 17.3 µM.

In the case of `Cc1cc(C)c2nccc(NCCCN(C)C)c2c1[N+](=O)[O-]`, the TGI in the experiment on ACHN renal, in the experiment on MCF7 breast, with EKVX NSCLC, with A498 renal, in the experiment with NCI-H460 lung and with RPMI-8226 leukemia was > 100 µM throughout. Moreover, the TGI in the experiment on SK-MEL-2 melanoma was 58.8 µM; in the experiment with UACC-257 melanoma, 33.7 µM; in the experiment on SK-MEL-28 melanoma it was 37 µM; in the experiment on UACC-62 melanoma, > 100 µM.

Consider `CCCCCCCCCCCCCCCCCCNC(=O)[C@H]1CSC(c2ccc(F)c(OC)c2)N1` (some centres undefined), for which the GI50 in the experiment on ACHN renal was 2.71 µM; with MCF7 breast it was 0.141 µM; in the experiment with EKVX NSCLC, 0.813 µM; in the experiment on A498 renal it was > 50 µM; with NCI-H460 lung, 0.211 µM; in the experiment on RPMI-8226 leukemia, 0.195 µM. Further, the GI50 in the experiment on SK-MEL-2 melanoma was 0.887 µM; with UACC-257 melanoma, 0.971 µM; in the experiment with SK-MEL-28 melanoma it was 0.647 µM; in the experiment on UACC-62 melanoma it was 0.639 µM. For the same compound, the TGI is > 50 µM in the experiment with ACHN renal; 0.541 µM with MCF7 breast; 1.6 µM in the experiment on EKVX NSCLC; > 50 µM in the experiment on A498 renal; 0.824 µM in the experiment with NCI-H460 lung; 0.826 µM in the experiment with RPMI-8226 leukemia. The TGI in the experiment with SK-MEL-2 melanoma was 1.67 µM; in the experiment on UACC-257 melanoma it was 1.88 µM; with SK-MEL-28 melanoma, 1.33 µM; with UACC-62 melanoma it was 1.28 µM.

Consider `NC(=O)c1c(NC(=O)c2cccc(C(F)(F)F)c2)sc2c1CCC(=O)C2`, for which the GI50 with ACHN renal was 0.322 µM; in the experiment on MCF7 breast, 0.203 µM; in the experiment with EKVX NSCLC it was 2.12 µM; in the experiment with A498 renal it was 3.33 µM; with NCI-H460 lung, 0.512 µM; in the experiment on RPMI-8226 leukemia, 0.127 µM. The GI50 was 2.06 µM with SK-MEL-2 melanoma, 2.17 µM in the experiment on UACC-257 melanoma, 1 µM with SK-MEL-28 melanoma and 0.368 µM in the experiment on UACC-62 melanoma. Moreover, the TGI in the experiment on ACHN renal was 1.05 µM; in the experiment on MCF7 breast it was > 100 µM; in the experiment on EKVX NSCLC, > 100 µM; with A498 renal it was > 100 µM; in the experiment with NCI-H460 lung, > 100 µM; with RPMI-8226 leukemia, 0.745 µM. Moreover, the TGI in the experiment with SK-MEL-2 melanoma stood at 6.25 µM; with UACC-257 melanoma, 6.38 µM; in the experiment on SK-MEL-28 melanoma it was 15.2 µM; in the experiment with UACC-62 melanoma, 1.66 µM.

Turning to `O=C(Nc1cccc(Cl)c1)c1cc(Cl)ccc1O`, the GI50 was 1.14 µM in the experiment with ACHN renal; 1.75 µM in the experiment with MCF7 breast; 1.83 µM with EKVX NSCLC; 0.256 µM in the experiment on A498 renal; 0.488 µM with NCI-H460 lung; 0.375 µM with RPMI-8226 leukemia. Further, the GI50 is 0.294 µM in the experiment on SK-MEL-2 melanoma, 0.41 µM in the experiment on UACC-257 melanoma, 0.415 µM in the experiment with SK-MEL-28 melanoma and 0.282 µM in the experiment with UACC-62 melanoma. In addition, the TGI in the experiment with ACHN renal was 10.6 µM; with MCF7 breast, > 26.6 µM; in the experiment with EKVX NSCLC, > 26.3 µM; with A498 renal, 0.764 µM; in the experiment on NCI-H460 lung it was 6.4 µM; in the experiment with RPMI-8226 leukemia it was 2.18 µM. Also, the TGI with SK-MEL-2 melanoma is 0.918 µM; in the experiment with UACC-257 melanoma, 2.87 µM; in the experiment on SK-MEL-28 melanoma, 3.77 µM; in the experiment with UACC-62 melanoma, 1.21 µM.

For the compound `Cc1ccc(S(=O)c2ccc([N+](=O)[O-])c3nonc23)cc1` (centres undefined), the GI50 in the experiment on ACHN renal was 1.92 µM; in the experiment on MCF7 breast, 5.53 µM; with A498 renal, 11.8 µM; with NCI-H460 lung, 17.7 µM; in the experiment with RPMI-8226 leukemia it was 3.62 µM; in the experiment with SK-MEL-2 melanoma it was 17.8 µM. The GI50 in the experiment on UACC-257 melanoma was 11.6 µM; with SK-MEL-28 melanoma, 9.15 µM; in the experiment with UACC-62 melanoma, 7.25 µM. Besides, the TGI with ACHN renal came to 3.75 µM; in the experiment on MCF7 breast, 21.9 µM; in the experiment with A498 renal, 26.4 µM; in the experiment on NCI-H460 lung, 38.6 µM; with RPMI-8226 leukemia it was 25.5 µM; in the experiment with SK-MEL-2 melanoma, 35.8 µM. Besides, the results for the TGI in the experiment on UACC-257 melanoma, in the experiment with SK-MEL-28 melanoma and in the experiment with UACC-62 melanoma were 23.9 µM, 23.3 µM and 20.2 µM, respectively.

As for `NCCNc1nc2ccccc2c2c(=O)c3cc(F)cc(Cl)c3sc12`, the GI50 in the experiment on ACHN renal was 1.63 µM; in the experiment with MCF7 breast, 1.52 µM; with EKVX NSCLC it was 1.6 µM; in the experiment with A498 renal, 1.56 µM; with NCI-H460 lung, 1.7 µM; in the experiment with RPMI-8226 leukemia, 1.8 µM. Besides, the GI50 with SK-MEL-2 melanoma is 1.82 µM; in the experiment on UACC-257 melanoma, 1.85 µM; in the experiment on SK-MEL-28 melanoma, 1.87 µM; in the experiment on UACC-62 melanoma it was 1.66 µM. Further, the TGI in the experiment with ACHN renal came out at 2.99 µM; in the experiment with MCF7 breast, 3.13 µM; in the experiment on EKVX NSCLC it was 3.13 µM; in the experiment on A498 renal it was 3.31 µM; in the experiment on NCI-H460 lung it was 3.25 µM; in the experiment on RPMI-8226 leukemia, 3.82 µM. Further, the TGI amounted to 3.6 µM in the experiment with SK-MEL-2 melanoma, 3.72 µM in the experiment on UACC-257 melanoma, 3.4 µM with SK-MEL-28 melanoma and 3.06 µM with UACC-62 melanoma.
